Our source for the IC50 and MPC8 values is patent publication US11090319B2, “Therapeutic uses of pharmaceutical compositions comprising cyclic boronic acid ester derivatives” (Melinta Subsidiary Corp., priority 2010, dated 2021).

The structures appear in SMILES notation. Where only a bound is given, the exact number is not on record here.

Assay [1] has as its target CTX-M-15, lysate of KP1009 (Escherichia coli, UniProt Q9EXV5). Briefly: Inhibition of ceftazidime hydrolysis by bacterial lysate.
In a further assay the target is SHV-12, lysate of KP1010 (Klebsiella pneumoniae, UniProt P0AD64, E235K/G234S/L31Q). The description is as above.
Assay [2] deals with ECL1004 Enterobacter cloacae NMC-A. Kind of assay: Checkerboard assay, biapenem potentiation. Conditions: Biapenem MIC 8-fold; ECL1004 NMC-A class A.
The target in the next assay is OXA-2, lysate of KX1000 (Salmonella typhimurium, UniProt P0A1V8). Kind of assay: Inhibition of ceftazidime hydrolysis by bacterial lysate.
Assay [3] relates to KP1008 Klebsiella pneumoniae KPC-2. Briefly: Checkerboard assay, biapenem potentiation. Particulars: Biapenem MIC 8-fold; KP1008 KPC-2 class A.
Assay [4] has as its target various β-lactamases (bacterial lysates) (Escherichia coli, UniProt Q53TY8). Kind of assay: Inhibition of nitrocefin cleavage by bacterial lysates, Table 11. The class given is biochemical. Particulars: lysate EC1010 pAmpC (CMY-6), read-out: NCF IC50 EC1010 pAmpC (CMY-6).
The next assay has as its target KPC-3, lysate of EC1007 (Klebsiella pneumoniae, UniProt Q9F663, H272Y). Briefly: Inhibition of ceftazidime hydrolysis by bacterial lysate.

OXA-2, lysate of KX1000, sequence (P0A1V8 22-275): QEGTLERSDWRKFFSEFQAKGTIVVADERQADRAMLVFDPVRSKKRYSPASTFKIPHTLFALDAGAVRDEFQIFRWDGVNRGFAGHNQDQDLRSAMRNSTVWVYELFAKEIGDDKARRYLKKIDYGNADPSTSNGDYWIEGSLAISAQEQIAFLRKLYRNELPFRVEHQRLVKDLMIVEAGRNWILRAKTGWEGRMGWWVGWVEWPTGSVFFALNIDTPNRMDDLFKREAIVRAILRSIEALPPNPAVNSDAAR
SHV-12, lysate of KP1010, sequence (P0AD64 22-286 L31Q/G234S/E235K): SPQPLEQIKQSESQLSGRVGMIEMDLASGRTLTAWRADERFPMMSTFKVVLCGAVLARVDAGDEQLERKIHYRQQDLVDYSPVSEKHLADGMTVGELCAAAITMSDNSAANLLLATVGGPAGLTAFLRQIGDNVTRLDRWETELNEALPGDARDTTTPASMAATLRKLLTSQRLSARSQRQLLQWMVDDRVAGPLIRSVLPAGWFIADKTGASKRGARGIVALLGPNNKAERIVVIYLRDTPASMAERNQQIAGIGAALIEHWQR
CTX-M-15, lysate of KP1009, sequence (Q9EXV5 entry or part of it): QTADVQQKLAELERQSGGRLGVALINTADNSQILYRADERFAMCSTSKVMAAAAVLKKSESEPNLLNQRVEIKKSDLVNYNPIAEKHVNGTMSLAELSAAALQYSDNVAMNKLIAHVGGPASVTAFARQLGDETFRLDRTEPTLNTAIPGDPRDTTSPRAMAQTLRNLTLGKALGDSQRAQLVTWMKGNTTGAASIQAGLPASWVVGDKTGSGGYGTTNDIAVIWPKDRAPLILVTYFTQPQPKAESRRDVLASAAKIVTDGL
KPC-3, lysate of EC1007, sequence (Q9F663 whole entry H272Y, looked up): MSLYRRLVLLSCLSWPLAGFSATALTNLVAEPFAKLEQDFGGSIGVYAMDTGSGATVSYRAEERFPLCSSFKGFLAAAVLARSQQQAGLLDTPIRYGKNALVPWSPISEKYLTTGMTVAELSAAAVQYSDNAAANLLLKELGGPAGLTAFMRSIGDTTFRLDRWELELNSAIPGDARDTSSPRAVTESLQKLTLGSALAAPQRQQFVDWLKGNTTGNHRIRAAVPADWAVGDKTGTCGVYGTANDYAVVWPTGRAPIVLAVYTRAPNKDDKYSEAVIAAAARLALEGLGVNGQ
various β-lactamases (bacterial lysates), sequence (Q53TY8 entry or part of it): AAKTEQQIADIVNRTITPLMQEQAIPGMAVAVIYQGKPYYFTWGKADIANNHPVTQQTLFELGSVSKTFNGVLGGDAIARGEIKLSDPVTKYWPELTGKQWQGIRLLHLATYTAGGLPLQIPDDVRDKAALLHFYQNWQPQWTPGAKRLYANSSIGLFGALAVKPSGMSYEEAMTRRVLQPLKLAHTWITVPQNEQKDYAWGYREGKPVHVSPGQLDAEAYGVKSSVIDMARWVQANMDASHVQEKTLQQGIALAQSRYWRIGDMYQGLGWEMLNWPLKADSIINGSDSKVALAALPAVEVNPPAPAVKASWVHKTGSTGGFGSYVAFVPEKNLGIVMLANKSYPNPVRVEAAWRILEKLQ

Turning to `CC(=O)N[C@H]1CCC(CC(=O)O)OB1O` (stereo partly drawn) [Compound 3, 2-((3R)-3-acetamido-2-hydroxy-1,2-oxaborinan-6-yl)acetic acid], the IC50 is > 4.65 µM in assay [1]; > 4.65 µM against SHV-12, lysate of KP1010; > 4.65 µM against OXA-2, lysate of KX1000. Also, the MPC8 result in assay [2] and in assay [3] was “X (MPC8 of less than 0.16 μg/mL)” throughout.
As for `O=C(O)CC1CC[C@H](NC(=O)C2CC2)B(O)O1` (stereo partly drawn) [Compound 4, 2-((3R)-3-(cyclopropanecarboxamido)-2-hydroxy-1,2-oxaborinan-6-yl)acetic acid], the concentration for half-maximal inhibition (IC50) was > 4.15 µM in assay [1]; > 4.15 µM at SHV-12, lysate of KP1010; > 4.15 µM against OXA-2, lysate of KX1000; > 8.3 µM in assay [4]; < 0.415 µM on KPC-3, lysate of EC1007. Also, the MPC8 result in assay [2] and in assay [3] was “X (MPC8 of less than 0.16 μg/mL)” in each case.
For the compound `Cl.N[C@H]1CCC(CC(=O)O)OB1O` (stereo partly drawn) [Compound 7, 2-((3R)-3-amino-2-hydroxy-1,2-oxaborinan-6-yl)acetic acid hydrochloride], the half-maximal inhibitory concentration (IC50) was 0.477 to 4.77 µM in assay [1]; > 4.77 µM against SHV-12, lysate of KP1010; > 4.77 µM against OXA-2, lysate of KX1000; > 4.77 µM against KPC-3, lysate of EC1007.
